Results published in patent US8778888B2, “Cystine knot peptides binding to alpha IIb beta 3 integrins and methods of use” (The Board of Trustees of the Leland Stanford Junior …, priority 2009, dated 2014).
Like-named read-outs stand apart in the source and are kept apart here. Bridge positions count the residues as written; N and C are the ends. Square brackets hold non-standard residues; d marks the D form. Peptide text beside a SMILES is read from it. hArg = N=C(N)NCCCC[C@H](N)C(=O)O; Mpa = O=C(O)CCS

What was measured:
[1] = target: T1, αIIbβ3 integrin (K562-αIIbβ3 cells) (Homo sapiens, UniProt P05106+P08514); assay: Cell binding assay on K562-αIIbβ3 cells (flow cytometry); conditions: K562-αIIbβ3 versus K562-αvβ3 cells
T1 construct: expressed in transfected cells; host or cells: K562 leukemia cells (from S. Blystone)
Procedure: K562 cells stably expressing αIIbβ3, αvβ3, or αvβ5 were obtained from S. Blystone and maintained in IMDM media (Gibco) containing 10% FBS and 1.0 mg/mL geneticin. For binding assays, 10^5 cells were suspended in IBB, and varying concentrations of AgRP peptides were added. After 3 hour incubation at 4° C., the cells were centrifuged, aspirated, and resuspended in ice-cold BPBS containing a 1:20 dilution of fluorescein-conjugated goat anti-His antibody (Bethyl) for […]. The cells were then centrifuged, aspirated, and stored as pellets on ice until analysis by flow cytometry using a BD FACS Caliber instrument Becton Dickinson. Binding data was analyzed with FlowJo (Treestar, Inc.) and data was fit to sigmoidal plots using Kaleidagraph (Synergy Software) to calculate equilibrium dissociation constants. Experiments were performed at least 3 times and data are presented as average values with standard deviations.
To determine the integrin binding affinities and specificities of the engineered AgRP peptides, direct binding assays were performed using K562 leukemia cells that have been transfected to stably express different integrin receptors See J. Cell Biol. 127(4) (1994). Cells were incubated in the presence of varying concentrations of AgRP peptides at 4° C., to minimize receptor internalization, followed by staining with a fluorescein-conjugated anti-hexahistidine antibody and analysis by flow cytometry. Equilibrium dissociation constants (KD values) were determined by plotting AgRP peptide concentration (log scale) versus normalized mean fluorescence intensity, then fitting the data to a sigmoidal curve.

human platelets = conditions: for inhibition of platelet aggregation (in words): ADP-activated human platelets, comparison with eptifibatide; for IC50: read-out: aggregation (IC50; nM) human platelets, platelets activated with 25 μM ADP, A365 end point over 1 h
Procedure: Human platelets isolated by pheresis were obtained from the Stanford Blood Center and stored in serum with 7% acid/citrate/dextrose (ACD) solution. Prior to use, the platelets were centrifuged, aspirated, washed once with Tyrode's buffer (140 mM NaCl, 3 mM KCl, 12 mM NaHCO3, 0.4 mM NaH2PO4, 2 mM MgCl2, 0.1% glucose, pH 7.4), and counted using a haemacytometer. Counted platelets were resuspended in fresh plasma to a final concentration of approximately 2.8×10^8 cells/mL. 180 μL of the platelet solution, or approximately 5×10^7 platelets, were added to separate wells in a 96-well microtiter plate. AgRP peptide or eptifibatide (Cell Sciences) were added to the wells at varying concentrations, after which the platelets were activated with 25 μM ADP. Absorbance at 365 nm was monitored over 1 hr using a Synergy 4 microplate reader (BioTek Instrumentation) with readings taken every 35 s, with 3 s of shaking between readings. […] Experiments were performed at least 3 times.
Next, the effects of the engineered AgRP peptides on αIIbβ3-mediated platelet aggregation were studied. Three αIIbβ3-specific peptides (2bA, 2bJ, and 2bO) and two β3-specific peptides (b3A and b3I) were tested again. […] Microtiter plates containing platelets in serum in the presence or absence of AgRP peptides were activated using ADP at a final concentration of 25 μM, and absorbance at 365 nm was monitored over 1 h.

[2] = cited from earlier work; for bleeding in patients: clinical use
αIIbβ3 integrin = αIIbβ3 integrin (Homo sapiens, UniProt P05106+P08514); conditions: clinical use; cited from earlier work
[3] = test system: ADP-induced platelet aggregation; conditions: clinical use; cited from earlier work
[4] = test system: αvβ3 integrin and the leukocyte integrin Mac-1; conditions: cited from earlier work
αvβ3 integrin = target: T2, αvβ3 integrin (Homo sapiens, UniProt P05106+P06756); assay: Yeast-displayed AgTx constructs binding to αvβ3 integrin; conditions: 10 nM αvβ3, the lowest concentration tested
T2 construct: purchased Millipore
T2 sequence (P06756 31-889 limits assumed): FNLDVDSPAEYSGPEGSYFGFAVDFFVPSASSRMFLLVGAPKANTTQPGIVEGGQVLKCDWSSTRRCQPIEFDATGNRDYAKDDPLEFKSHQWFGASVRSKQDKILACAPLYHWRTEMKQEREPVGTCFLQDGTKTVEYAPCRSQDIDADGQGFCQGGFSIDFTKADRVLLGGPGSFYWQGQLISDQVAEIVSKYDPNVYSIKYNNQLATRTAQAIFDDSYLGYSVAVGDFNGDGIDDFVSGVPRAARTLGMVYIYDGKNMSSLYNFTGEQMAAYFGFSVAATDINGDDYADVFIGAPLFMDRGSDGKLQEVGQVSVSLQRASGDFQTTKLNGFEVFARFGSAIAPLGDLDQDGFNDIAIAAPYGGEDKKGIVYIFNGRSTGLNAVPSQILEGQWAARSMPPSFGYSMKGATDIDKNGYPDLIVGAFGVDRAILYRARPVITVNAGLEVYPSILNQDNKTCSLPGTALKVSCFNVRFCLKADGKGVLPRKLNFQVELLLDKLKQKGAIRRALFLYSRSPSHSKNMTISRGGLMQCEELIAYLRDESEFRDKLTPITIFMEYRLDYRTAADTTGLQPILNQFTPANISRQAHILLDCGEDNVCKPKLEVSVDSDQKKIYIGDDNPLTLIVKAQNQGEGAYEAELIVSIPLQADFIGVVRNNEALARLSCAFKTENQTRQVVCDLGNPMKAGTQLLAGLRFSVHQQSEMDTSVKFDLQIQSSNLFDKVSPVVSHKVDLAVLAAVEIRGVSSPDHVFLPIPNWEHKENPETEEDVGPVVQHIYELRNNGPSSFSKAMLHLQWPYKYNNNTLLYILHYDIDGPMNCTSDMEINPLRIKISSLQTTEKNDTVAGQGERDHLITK
T2 sequence (P06756 891-1048 partner limits assumed): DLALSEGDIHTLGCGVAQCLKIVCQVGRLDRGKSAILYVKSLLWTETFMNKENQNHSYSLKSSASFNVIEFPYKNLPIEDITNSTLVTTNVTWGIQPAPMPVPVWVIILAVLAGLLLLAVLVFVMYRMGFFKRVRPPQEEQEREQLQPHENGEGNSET
T2 sequence (P05106 27-788): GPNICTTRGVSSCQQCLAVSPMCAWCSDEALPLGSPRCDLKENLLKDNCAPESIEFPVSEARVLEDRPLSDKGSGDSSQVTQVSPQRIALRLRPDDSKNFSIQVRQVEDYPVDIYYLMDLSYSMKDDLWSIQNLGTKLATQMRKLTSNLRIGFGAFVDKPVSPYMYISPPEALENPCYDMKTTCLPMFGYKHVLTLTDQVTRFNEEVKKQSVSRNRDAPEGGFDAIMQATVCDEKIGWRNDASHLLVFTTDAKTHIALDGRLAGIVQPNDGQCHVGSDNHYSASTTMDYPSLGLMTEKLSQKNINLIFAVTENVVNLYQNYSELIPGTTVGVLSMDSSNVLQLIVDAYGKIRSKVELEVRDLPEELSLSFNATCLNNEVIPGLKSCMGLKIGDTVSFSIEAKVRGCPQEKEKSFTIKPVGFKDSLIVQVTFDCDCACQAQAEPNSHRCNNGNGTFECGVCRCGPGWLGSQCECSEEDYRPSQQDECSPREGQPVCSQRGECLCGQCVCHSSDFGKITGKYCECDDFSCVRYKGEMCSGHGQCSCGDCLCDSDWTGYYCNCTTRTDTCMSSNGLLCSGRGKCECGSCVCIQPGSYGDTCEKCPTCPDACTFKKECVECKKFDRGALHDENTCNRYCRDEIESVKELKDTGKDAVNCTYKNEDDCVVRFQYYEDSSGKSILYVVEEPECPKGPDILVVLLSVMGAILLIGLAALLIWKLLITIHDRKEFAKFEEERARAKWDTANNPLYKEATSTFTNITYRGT
Procedure: The yeast library was grown in selective media (SD-CAA, 20 g/L glucose, 6.7 g/L yeast nitrogen base without amino acids, 5.4 g/L Nα2HPO4, 8.6 g/L NaH2PO4.H2O, and 5 g/L Bacto casamino acids) and induced in selective media containing galactose (SG-CAA). For library screening, 5 to 25×10^6 yeast (depending on the sort round) were labeled with detergent-solubilized integrin and a 1:250 dilution of chicken anti-c-myc IgY (Invitrogen) in integrin binding buffer (IBB, 20 mM Tris pH 7.5 with 1 mM MgCl2, 1 mM MnCl2, 2 mM CaCl2, 100 mM NaCl, and 1 mg/mL bovine serum albumin) at room temperature for 2 h. The yeast cells were centrifuged at 4° C. and the supernatant was removed by aspiration. The yeast were then resuspended in ice-cold BPBS (PBS containing 1 mg/mL bovine serum albumen) containing a 1:100 dilution of phycoerythrin-conjugated goat anti-chicken IgY secondary antibody (Santa Cruz Biotechnology) and a 1:25 dilution of either fluorescein-conjugated anti-αvβ3 antibody (Biolegend) or fluorescein-conjugated anti-αIIb antibody (Biolegend), as appropriate. After incubation for 20 min on ice, the yeast were centrifuged, aspirated, and stored as pellets on ice until cell sorting. Yeast library screening was performed using a Becton Dickinson FACS Vantage SE instrument (Stanford FACS Core Facility) and CellQuest software. […]

CC(C)C[C@@H]1NC(=O)[C@@H]2CSSC[C@@H]3NC(=O)[C@H]([C@@H](C)O)NC(=O)[C@H](C)NC(=O)[C@H](C)NC(=O)[C@@H]4CCCN4C(=O)[C@H](CC(=O)O)NC(=O)[C@H](CSSC[C@H](NC(=O)CNC(=O)[C@H](CCCNC(=N)N)NC(=O)[C@@H]4CCCN4C(=O)[C@H](CCCCN)NC(=O)[C@H](CC(=O)O)NC(=O)[C@H](CC(=O)O)NC(=O)[C@H](CC(=O)O)NC(=O)[C@H](CC(=O)O)NC(=O)[C@H](CCCCN)NC(=O)[C@H](Cc4ccc(O)cc4)NC(=O)[C@H](CC(=O)O)NC(=O)[C@@H](NC(=O)[C@@H](N)Cc4ccc(O)cc4)C(C)C)C(=O)N[C@@H](C(C)C)C(=O)N[C@@H](CCCNC(=N)N)C(=O)N[C@@H](CC(C)C)C(=O)N[C@@H](Cc4c[nH]cn4)C(=O)N[C@@H](CCC(=O)O)C(=O)N[C@@H](CO)C(=O)N2)NC(=O)[C@H](CSSC[C@@H](C(=O)N[C@@H](CCCNC(=N)N)C(=O)N[C@H](C(=O)N[C@@H](CCCNC(=N)N)C(=O)N[C@@H](Cc2c[nH]cn2)C(=O)N[C@@H](Cc2c[nH]cn2)C(=O)N[C@@H](Cc2c[nH]cn2)C(=O)N[C@@H](Cc2c[nH]cn2)C(=O)N[C@@H](Cc2c[nH]cn2)C(=O)N[C@@H](Cc2c[nH]cn2)C(=O)O)[C@@H](C)O)NC(=O)[C@H](Cc2ccc(O)cc2)NC(=O)[C@@H]2CSSC[C@H](NC(=O)[C@H](Cc4ccc(O)cc4)NC3=O)C(=O)N[C@@H](C(C)C)C(=O)NCC(=O)N[C@@H](CCCNC(=N)N)C(=O)NCC(=O)N[C@@H](CC(=O)O)C(=O)N[C@@H](C(C)C)C(=O)N[C@@H](CCCNC(=N)N)C(=O)N[C@@H](CCCNC(=N)N)C(=O)N[C@@H](CCCCN)C(=O)N2)NC(=O)[C@@H]2CCCN2C(=O)[C@H](C(C)C)NC(=O)[C@H](CCC(N)=O)NC(=O)[C@H](CCC(N)=O)NC(=O)CNC1=O [b3A]
integrin binding specificity on K562 cell lines [1]: bound both K562-αIIbβ3 and K562-αvβ3 cells
inhibition of platelet aggregation (in words) (human platelets): slightly more effective

CC(C)C[C@@H]1NC(=O)[C@@H]2CSSC[C@@H]3NC(=O)[C@H]([C@@H](C)O)NC(=O)[C@H](C)NC(=O)[C@H](C)NC(=O)[C@@H]4CCCN4C(=O)[C@H](CC(=O)O)NC(=O)[C@H](CSSC[C@H](NC(=O)CNC(=O)[C@H](CCCNC(=N)N)NC(=O)[C@@H]4CCCN4C(=O)[C@H](CCCCN)NC(=O)[C@H](CC(=O)O)NC(=O)[C@H](CC(=O)O)NC(=O)[C@H](CC(=O)O)NC(=O)[C@H](CC(=O)O)NC(=O)[C@H](CCCCN)NC(=O)[C@H](Cc4ccc(O)cc4)NC(=O)[C@H](CC(=O)O)NC(=O)[C@@H](NC(=O)[C@@H](N)Cc4ccc(O)cc4)C(C)C)C(=O)N[C@@H](C(C)C)C(=O)N[C@@H](CCCNC(=N)N)C(=O)N[C@@H](CC(C)C)C(=O)N[C@@H](Cc4c[nH]cn4)C(=O)N[C@@H](CCC(=O)O)C(=O)N[C@@H](CO)C(=O)N2)NC(=O)[C@H](CSSC[C@@H](C(=O)N[C@@H](CCCNC(=N)N)C(=O)N[C@H](C(=O)N[C@@H](CCCNC(=N)N)C(=O)N[C@@H](Cc2c[nH]cn2)C(=O)N[C@@H](Cc2c[nH]cn2)C(=O)N[C@@H](Cc2c[nH]cn2)C(=O)N[C@@H](Cc2c[nH]cn2)C(=O)N[C@@H](Cc2c[nH]cn2)C(=O)N[C@@H](Cc2c[nH]cn2)C(=O)O)[C@@H](C)O)NC(=O)[C@H](Cc2ccc(O)cc2)NC(=O)[C@@H]2CSSC[C@H](NC(=O)[C@H](Cc4ccc(O)cc4)NC3=O)C(=O)N[C@@H](CCCNC(=N)N)C(=O)NCC(=O)N[C@@H](CCCNC(=N)N)C(=O)NCC(=O)N[C@@H](CC(=O)O)C(=O)N[C@@H](C(C)C)C(=O)N[C@@H](CCCCN)C(=O)N[C@@H](CC(C)C)C(=O)N[C@@H](CCCNC(=N)N)C(=O)N2)NC(=O)[C@@H]2CCCN2C(=O)[C@H](C(C)C)NC(=O)[C@H](CCC(N)=O)NC(=O)[C@H](CCC(N)=O)NC(=O)CNC1=O [b3I]
integrin binding specificity on K562 cell lines [1]: bound both K562-αIIbβ3 and K562-αvβ3 cells
inhibition of platelet aggregation (in words) (human platelets): slightly more effective

N=C(N)NCCCC[C@@H]1NC(=O)CCSSC[C@@H](C(N)=O)NC(=O)[C@@H]2CCCN2C(=O)[C@H](Cc2c[nH]c3ccccc23)NC(=O)[C@H](CC(=O)O)NC(=O)CNC1=O [eptifibatide, Mpr-Har-Gly-Asp-Trp-Pro-Cys, reference compound] ([Mpa][hArg]GDWPC-NH2; disulfide 1-7)
IC50 (human platelets): 94 ± 14 nM
IC50 (human platelets; listed as Eptifibatide): 80 nM
bleeding in patients [2]: no increases in bleeding have been reported

Abciximab: αIIbβ3 integrin-specific antibody fragment c7E3
blockage of αIIbβ3 integrin (αIIbβ3 integrin): > 90%
inhibition of ADP-induced platelet aggregation [3]: > 80%
bleeding in patients [2]: bleeding issues in many patients
persistence of the antibody in the patient ([2]; in spite of a 12-hour infusion): over two-thirds of the antibody persists in the patient for several weeks
binding to other integrins [4]: also binds to αvβ3 integrin and the leukocyte integrin Mac-1

GCIAEDYGRCTWGGTPCCRGRGCICSGRGDNDLVCECT [AgTx2-7A, AgRP 7A loop 4 grafted into AgTx consensus 2]
binding to αvβ3 integrin on yeast surface (αvβ3 integrin): Binding was observed at 10 nM αvβ3

GCIAEDYGRCTWGGTPCCRGRPCRCSGRGDNDLVCECT [AgTX-1-7A, AgRP 7A loop 4 grafted into AgTx consensus 1]
binding to αvβ3 integrin on yeast surface (αvβ3 integrin): Binding was observed at 10 nM αvβ3
